Values of other authors as cited in patent US20040096950A1, “Crystal structure of beta site APP cleaving enzyme (BACE) and methods of use thereof” (priority 2002, published 2004).
Where a SMILES comes first, the peptide text is derived from it. [ ]: non-standard residue; d: D form. The star is where a group is joined. Sta = CC(C)C[C@H](N)[C@@H](O)CC(=O)O; Isovaleryl = CC(C)CC(=O)*

Biological target: BACE (Homo sapiens, UniProt P56817)
Details: background statement, no concentration given

Chain of BACE (P56817 46-501): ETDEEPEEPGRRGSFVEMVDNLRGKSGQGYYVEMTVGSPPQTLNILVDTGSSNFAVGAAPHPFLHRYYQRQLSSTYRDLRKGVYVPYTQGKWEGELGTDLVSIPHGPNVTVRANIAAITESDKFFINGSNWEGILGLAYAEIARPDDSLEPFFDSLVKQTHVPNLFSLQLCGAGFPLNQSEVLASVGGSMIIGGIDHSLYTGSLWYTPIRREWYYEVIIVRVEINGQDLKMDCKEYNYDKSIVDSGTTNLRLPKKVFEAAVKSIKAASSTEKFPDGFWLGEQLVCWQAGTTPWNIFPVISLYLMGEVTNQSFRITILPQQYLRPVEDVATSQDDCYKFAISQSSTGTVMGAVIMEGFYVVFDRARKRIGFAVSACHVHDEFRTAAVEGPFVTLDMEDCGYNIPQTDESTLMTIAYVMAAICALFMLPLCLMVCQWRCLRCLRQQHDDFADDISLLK

inhibition of BACE: inhibited weakly
Compound: CC(C)CC(=O)N[C@H](C(=O)N[C@H](C(=O)N[C@@H](CC(C)C)[C@@H](O)CC(=O)N[C@@H](C)C(=O)N[C@@H](CC(C)C)[C@@H](O)CC(=O)O)C(C)C)C(C)C [pepstatin] (Isovaleryl-VV[Sta]A[Sta]-OH)
